Results taken from patent US20060160775A1, “Combination therapy” (priority 2003, published 2006).

Tests used:
[1] = system: Human LoVo colorectal carcinoma tumour xenografts; assay: Human LoVo colorectal carcinoma tumour xenografts in nude mice; assay type: in vivo, athymic (nu/nu genotype) mouse; conditions: for Number of tumour regressions evident at day 14: groups of nine; for Mean % Inhibition of tumour growth at day 14: vs vehicle control
Experimental: Human LoVo Colorectal Carcinoma Tumour Xenografts in Nude Mice
1×10^7 LoVo tumour cells in 0.1 ml of serum free Dulbecco's Modified Eagle's Medium (DMEM) were injected subcutaneously (s.c.) into the flank of each athymic (nu/nu genotype) mouse. Tumour volumes were assessed by bilateral Vernier caliper measurement and, taking length to be the longest diameter across the tumour and width the corresponding perpendicular, calculated using the formula (length×width)×the square root of (length×width)×(π/6). […] ZD6126 was dissolved in a solution of 0.05% sodium carbonate in physiological saline and administered by intraperitoneal injection at 0.1 ml/10 g body weight. […] Inhibition of tumour growth from the start of treatment was assessed on day 14 by comparison of the differences in tumor volume between control and treated groups. In addition, the number of tumour regressions following 14 days of treatment was ascertained (tumour regression being evident if the tumour volume at day 14 was smaller than the pre-treatment value on day 0).

tumour models = assay: Anti-tumour activity in a range of models; assay type: in vivo; conditions: once-daily oral administration
tumour vasculature = conditions: in vivo; cited from earlier work
[2] = AZD2171 alone, 3 mg/kg/day, days 0-14, p.o.
[3] = ZD6126 alone, 100 mg/kg/day, days 0-2, i.p.

Compound	Number of tumour regressions evident at day 14 [1, 2]	Mean % Inhibition of tumour growth at day 14 [1, 2]	Anti-tumour activity (tumour models)	Effect on tumour vasculature (tumour vasculature)	Number of tumour regressions evident at day 14 [1, 3]	Mean % Inhibition of tumour growth at day 14 [1, 3]
COc1cc2c(Oc3ccc4[nH]c(C)cc4c3F)ncnc2cc1OCCCN1CCCC1 [AZD2171, 4-(4-fluoro-2-methylindol-5-yloxy)-6-methoxy-7-(3-(pyrrolidin-1-yl)propoxy)quinazoline]	0/9	62% (P < 0.001)	broad-spectrum anti-tumour activity	–	–	–
COc1cc2c(c(OC)c1OC)-c1ccc(OP(=O)(O)O)cc1[C@@H](NC(C)=O)CC2 [ZD6126, (5S)-5-(acetylamino)-9,10,11-trimethoxy-6,7-dihydro-5H-dibenzo[a,c]cyclohepten-3-yl dihydrogen phosphate]	–	–	–	selectively disrupts tumour vasculature leading to vessel occlusion and extensive tumour necrosis	1/9	65% (P < 0.001)
